Measured values as given in PubChem BioAssay AID743274 (The Scripps Research Institute Molecular Screening Center, 2014).
Active and inactive are the calls of the source.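 Rule for the calls: active = malaria parasite growth inhibition of at least 50% at 10 µM in any single replicate well; inactive = under 50% inhibition in every replicate.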

Tested on: P. falciparum 3D7 in RBCs, 3H-hypoxanthine incorporation, 48 h
Assay: blood-stage malaria parasite growth inhibition – cell-based, 3H-hypoxanthine radiolabel, RBCs, Set 2, P. falciparum M17LAP inhibitor project, late-stage follow-up (AID 743274)
Settings: at 10 µM; active compounds read high

Structure (SMILES) | inhibition
COc1ccc(CCCC(=O)NO)cc1 | 15.5% (inactive)
CCCCOc1ccc(C(C)(C)C(=O)NO)cc1 | 12% (inactive)
CCCCOc1ccc(CC(=O)N(C)O)cc1 | 58%
COc1ccc(OCCC(=O)NO)cc1 | 9% (inactive)
CC(C)C[C@H](N)C(=O)NO | 1% (inactive)
O=C(Cc1ccc2c(c1)CCCC2)NO | 82.5%
O=C(Cc1ccc2ccccc2c1)NO | 52%
Cc1ccc(CC(=O)NO)cc1 | 53%
O=C(Cc1ccc(OCc2ccccc2)cc1)NO | 93%
CCCCOc1cccc(CC(=O)NO)c1 | 32.5% (inactive)
CCCCOc1ccc(C(C)C(=O)O)cc1 (stereo unspecified) | 0% (inactive)
O=C(Cc1cccc2ccccc12)NO | 14.5% (inactive)
CCCCOc1ccc(CN(O)C(=O)c2ccccc2)cc1 | 59.5%
CCCCOc1ccc(CCC(=O)NO)cc1 | 26% (inactive)
NC(N)=NCCC[C@H](N)C(=O)NO | 0% (inactive)
O=C(NO)c1ccc2ccccc2c1 | 53.5%
CCCCCCCCCC(=O)NO | 53%
CC(C)COc1ccc(CC(=O)NO)cc1 | 69%

Structure (SMILES) | inhibition
CCCOc1ccc(CC(=O)NO)cc1 | 74%
CN(O)C(=O)Cc1ccc(OCc2ccccc2)cc1 | 15.5% (inactive)
CCCCc1ccc(CC(=O)NO)cc1 | 84.5%
N[C@@H](Cc1c[nH]c2ccccc12)C(=O)NO | 2.5% (inactive)
CCC(C)Oc1ccc(CC(=O)NO)cc1 (stereo unspecified) | 71%
CCOc1ccc(CC(=O)NO)cc1 | 70%
CCCCOc1ccc(CC(=O)O)cc1 | 0% (inactive)
CCCCOc1ccc(CNc2c(N(O)Cc3ccccc3)c(=O)c2=O)cc1 | 0% (inactive)
COc1ccc(CC(=O)NO)cc1 | 50%
CC(C)(C(=O)NO)c1ccccc1 | 0% (inactive)
CCCCOc1ccc(CN(O)C(C)=O)cc1 | 19.5% (inactive)
CCCCOc1cccc(CC(=O)OC)c1 | 3% (inactive)
CCCCOc1ccc(C(C)C(=O)NO)cc1 (stereo unspecified) | 59.5%
CCCCOc1ccc(CNc2c(N(C)O)c(=O)c2=O)cc1 | 63%
O=C(NO)c1cccc2ccccc12 | 0% (inactive)
O=C(Cc1ccc(Oc2ccccc2)cc1)NO | 38.5%
CCCCOc1ccc(C(C)C(=O)OC)cc1 (stereo unspecified) | 4.5% (inactive)
CCCCOc1ccc(C(=O)NO)cc1 | 73.5%
